# Laboratory results: patent US20210154210A1, “Ophthalmic Formulations and Uses Thereof” (priority 2018, published 2021)
# Test system: corneal endothelial cells
# Test: Corneal endothelial cell counting by specular microscopy
# Format: in vivo, rabbits
# Settings: for higher cell density compared to negative control group / higher cell density compared to placebo group: 25 ng/mL (group B); for degeneration rate / effect on slowing down and stopping apoptosis and/or autophagy: 25 ng/mL
# Text: All experiments were designed and carried out in a randomized, double blind manner using placebos. Rabbits were housed for one week prior to the study, fed on standard laboratory food and allowed free access to water in a room at standard temperature and humidity conditions in a 12-h light/12-h dark cycle.
# Counting Corneal Cell number:
# Any excess was discarded, and a fresh batch prepared for the next 15-days. Effects of the eye drop on corneal endothelium as well as cell numbers and shapes were observed by means of specular microscopy (NIDEK-CEM 530, Japan) at the end of months 0, 1, 3 and 6. Rabbits were euthanatized by an intravenous injection of Tanax (0.3 mL/kg). Vitreous (0.2 mL) was aspirated with a 25-gauge needle attached to a 5-mL disposable syringe, driven at 3.0 mm from the limbus, and guided toward the center of the eyeball, taking care to avoid bleeding when the needle was introduced (vitreous samples were stored at −80° C. until the analysis). Eye tissue was fixed with 4% formaldehyde and embedded in paraffin for histopathological assessment. The individual values for three replicates were determined and the mean values were reported.
# All analyses were carried out using GraphPad Prism 5.0 (GraphPad Software, San Diego, Calif., USA). Differences were considered to be significant at a level of P 0.001.
# [1] = compared to the negative control group
smiles,measurement,setting,value
"CC(C)(O)[C@@H]1CC[C@](C)([C@H]2[C@@H](O)C[C@@]3(C)[C@@H]4C[C@H](O)[C@H]5C(C)(C)[C@@H](O)CC[C@@]56C[C@@]46CC[C@]23C)O1 [cycloastragenol, Cycloastragenol]",higher cell density compared to negative control group,month 1,about 4%
same,higher cell density compared to placebo group,month 1,about 4%
same,higher cell density compared to negative control group,month 3,~18%
same,higher cell density compared to placebo group,month 3,~18%
same,higher cell density compared to negative control group,month 6,~19%
same,higher cell density compared to placebo group,month 6,~20%
same,degeneration rate,[1],0%
same,effect on slowing down and stopping apoptosis and/or autophagy,[1],100%
same,degeneration rate,compared to the placebo group,0%
same,effect on slowing down and stopping apoptosis and/or autophagy,compared to the placebo group,100%
